Measurements as given in patent US20220144840A1, “HETEROCYCLIC COMPOUNDS AND THEIR USE IN THE TREATMENT OF AMYLOID-RELATED DISEASES” (D.E. Shaw Research, LLC, priority 2019, published 2022).

target: T1, Beta-Amyloid (1-42), human (Homo sapiens, UniProt P05067); test: Thioflavin T (ThT) Beta-Amyloid (1-42) Aggregation Assay; format: biochemical; settings: 8 μM Beta-Amyloid (1-42), 50 μM ThT dye, 37° C., slope of fluorescence time course; read-out: IC50 for inhibiting amyloids
T1 construct: Component B: Beta-Amyloid (1-42), human, 0.25 mg×2, lyophilized;; purchased AnaSpec AS-72214
Protocol: This assay is used to evaluate the disclosed compounds' activities for inhibiting amyloids.
Thioflavin T (ThT) Beta-Amyloid (1-42) Aggregation Assay Protocol
SensoLyte Thioflavin T Beta-Amyloid (1-42) Aggregation Kit was used (AnaSpec Cat #AS-72214), which includes the following components:
Component A: Assay Buffer (Buffer components are not disclosed);
Component B: Beta-Amyloid (1-42), human, 0.25 mg×2, lyophilized;
Component C: 20 mM ThT solution; and
Component D: 20 mM Phenol Red (Control Inhibitor).
The following buffer was used: 0.005% Tween 20, Assay Buffer from Kit (Component A), and 1% DMSO (final including carryover from compounds).
The final reaction conditions include 8 μM Beta-Amyloid (1-42) and 50 μM ThT dye.
Corning cat #3573, Non-Treated, Black 384-well plate was used as assay plate.
Morin (Sigma Cat #: M4008-2G) was used as control inhibitor.
The reaction procedure is as follows: • 1. Prepare 2×ThT solution in Reaction Buffer; keep in the dark; • 2. Deliver 10 μl/well of 2×ThT solution into the wells; • 3. Prepare 2× Beta-Amyloid solution in Reaction Buffer in polypropylene tube, sonicate for 5 min; keep on ice until use; • 4. Deliver compounds in DMSO into the ThT solution by Acoustic technology (Echo550; nanoliter range), no pre-incubation; • 5. Immediately after compound addition, deliver 10 μL/well of Beta-Amyloid solution into the reaction well, buffer into “No peptide” wells instead; • 6. Immediately start measuring fluorescence intensity in EnVision, set at 37° C., (Ex/Em=450/485 nm) as a time-course measurement every 5 min (30 sec shaking between each read) for 3 hours; • 7. Analyze data by taking slope (signal/time) of linear portion (typically 5 to 45 min) of measurement (therefore time period taken for slope for analysis is different for each target); and • 8. Slope is calculated by using Excel, and curve fits are performed using Prism software.

T1 sequence (P05067 672-713 limits assumed): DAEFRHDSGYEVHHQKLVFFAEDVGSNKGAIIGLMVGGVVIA

SMILES	IC50 [µM]
Clc1ccc2nc(SCc3cn4cc(Cl)ccc4n3)[nH]c2c1 [Compound 1, 6-chloro-2-[([6-chloroimidazo[1,2-a]pyridin-2-yl]methyl)sulfanyl]-1H-1,3-benzodiazole]	< 100
O=[N+]([O-])c1ccc2nc(SCc3nc4ccc(Cl)cn4c3Br)[nH]c2c1 [Compound 2, 2-[([3-bromo-6-chloroimidazo[1,2-a]pyridin-2-yl]methyl)sulfanyl]-6-nitro-1H-1,3-benzodiazole]	< 200
Cn1c(CSc2nc3ncccn3n2)nc2cc(Cl)ccc21 [Compound 3, 5-chloro-1-methyl-2-([[1,2,4]triazolo[1,5-a]pyrimidin-2-ylsulfanyl]methyl)-1,3-benzodiazole]	< 200
CCn1c(SCc2cn3cc(C)ccc3n2)nc2ccccc21 [Compound 4, 1-ethyl-2-[([6-methylimidazo[1,2-a]pyridin-2-yl]methyl)sulfanyl]-1,3-benzodiazole]	< 100
Cc1ccc2nc(CSc3nc4ccc(Cl)cc4[nH]3)cn2c1 [Compound 5]	< 200
